Test system: female mice of the C57BL/6J strain
Test: Lowering of serum cholesterol level in mice subjected to a fatty diet (single dose)
Format: in vivo
Settings: total serum cholesterol; female C57BL/6J mice on fatty diet (1.25% cholesterol, 0.5% cholic acid); single dose 100 mg/kg by tubage, suspension in 3% aqueous gum
Experimental: The antiatheromatous activity of the compounds according to the invention was evaluated as a function of their ability to lower the serum cholesterol level in mice subjected to a fatty diet. […] This correlation affords a test which is more rapid than direct experiments on the atheromatous plaque, which require a lengthy treatment of the animals and an expensive histological study of the walls of the aortic arch.
The test used consists in administering a single dose of the compound to female mice of the C57BL/6J strain. The protocol is as follows: On the first day (D0), the mice are fasted from 9 am to 5 pm, a blood sample being taken at 2 pm. At 5 pm, a given amount of food (a fatty diet comprising 1.25% of cholesterol and 0.5% of cholic acid) is distributed. On the second day (D1), the food leftovers are weighed at 9 am and the mice are fasted from 9 am to 2 pm. A blood sample is taken at 2 pm. For the treated groups of mice, the compound is administered at 9 am on the second day (D1) by tubage in the form of a suspension in a 3% aqueous solution of gum. The control groups receive only the aqueous gum.
The compounds were tested at a dose of 100 mg/kg. The total serum cholesterol is assayed and the results are expressed as the percentage inhibition of the increase in cholesterolemia compared with the control group.

| SMILES | Activity (%): percentage inhibition of the increase in cholesterolemia compared with the control group |
| --- | --- |
| CC(=O)OC[C@H]1O[C@H](Oc2ccc(C(=O)c3ccc(C#N)cc3)cc2)[C@H](OC(C)=O)[C@@H](OC(C)=O)[C@@H]1OC(C)=O [Example 1, [4-(4-Cyanobenzoyl)phenyl]2,3,4,6-tetra-O-acetyl-α-D-glucopyranoside] | −27% |
| N#Cc1ccc(C(=O)c2ccc(O[C@H]3O[C@H](CO)[C@@H](O)[C@H](O)[C@H]3O)cc2)cc1 [Example 2, [4-(4-Cyanobenzoyl)phenyl]α-D-glucopyranoside] | −23% |
| CC(=O)OC[C@H]1O[C@H](Oc2ccc(C(=O)c3ccc(C#N)cc3)cc2)[C@@H](OC(C)=O)[C@@H](OC(C)=O)[C@@H]1OC(C)=O [Example 3, [4-(4-Cyanobenzoyl)phenyl]2,3,4,6-tetra-O-acetyl-α-D-mannopyranoside] | −10% |
| N#Cc1ccc(C(=O)c2ccc(O[C@H]3O[C@H](CO)[C@@H](O)[C@H](O)[C@@H]3O)cc2)cc1 [Example 4, [4-(4-Cyanobenzoyl)phenyl]α-D-mannopyranoside] | −38% |
| CC(=O)OC[C@H]1O[C@H](Oc2ccc(C(=O)c3ccc(C#N)cc3)cc2)[C@H](OC(C)=O)[C@@H](OC(C)=O)[C@H]1OC(C)=O [Example 5, [4-(4-Cyanobenzoyl)phenyl]2,3,4,6-tetra-O-acetyl-α-D-galactopyranoside] | −32% |
| N#Cc1ccc(C(=O)c2ccc(O[C@H]3O[C@H](CO)[C@H](O)[C@H](O)[C@H]3O)cc2)cc1 [Example 6, [4-(4-Cyanobenzoyl)phenyl]α-D-galactopyranoside] | −35% |
| CC(=O)O[C@@H]1[C@@H](Oc2ccc(C(=O)c3ccc(C#N)cc3)cc2)OC[C@@H](OC(C)=O)[C@H]1OC(C)=O [Example 7, [4-(4-Cyanobenzoyl)phenyl]2,3,4-tri-O-acetyl-α-D-arabinopyranoside] | −25% |
| N#Cc1ccc(C(=O)c2ccc(O[C@H]3OC[C@@H](O)[C@@H](O)[C@@H]3O)cc2)cc1 [Example 8, [4-(4-Cyanobenzoyl)phenyl]α-D-arabinopyranoside] | −29% |
| N#Cc1ccc(C(=O)c2ccc(O[C@H]3OC[C@@H](O)[C@H](O)[C@@H]3O)cc2)cc1 [Example 10, [4-(4-Cyanobenzoyl)phenyl]α-D-lyxopyranoside] | −48% |
| N#Cc1ccc(C(=O)c2ccc(O[C@H]3OC[C@@H](O)[C@@H](O)[C@H]3O)cc2)cc1 [Example 11, [4-(4-Cyanobenzoyl)phenyl]α-D-ribopyranoside] | −26% |

— patent US20030139349A1, “Benzophenone alpha-d-glycopyranosides, preparation and therapeutic use” (priority 2002, published 2003)
